From patent publication US12208110B2 (priority 2020, dated 2025)

Assays:
[1] = tested on: RSV-Fluc (Recombinant Respiratory Syncytial virus strain A2 containing the firefly luciferase reporter); assay: microbe, parasite or virus in culture; type: cell-based; conditions: human respiratory syncytial virus, NHBE, 72 h, read-out: RSV-Fluc EC50 (nM, NHBE)
[2] = set-up: species or system Sprague-Dawley (SD) rats; conditions: male, Sprague-Dawley, rat, in vivo, po, 10 mg/kg
Protocol: Example 80: Rat Lung Phosphate (Monophosphate, Diphosphate and Triphosphate) Data with Exemplary Compounds
Measurement of GS-441524 (compound A below) and its phosphorylated metabolites (compounds B, C, and D below) in lung tissues was performed according to the following protocol.
The concentrations of GS-441524 (A) and its phosphorylated metabolites (B, C, and D) were determined in Sprague-Dawley (SD) rats following oral gavage administration of the test compounds. The in-life phase of studies was conducted at Covance Laboratories (Madison, WI). Animals were housed and handled in accordance with the Guide for the Care and Use of Laboratory Animals, Institute of Laboratory Animal Resources. The protocols were reviewed and approved by the Institutional Animal Care and Use Committees (IACUC). Male SD rats weighing approximately 0.3 kg were used for in-life portion of the studies. The animals were fasted overnight prior to the test compound administration and up to 4 hours post-dose. The animals were administered with the test compound at 5, 8, 10 or 20 mg/kg via oral gavage (3 rats per group). The aqueous formulation contains ethanol, dimethyl sulfoxide, Kolliphor HS-15, Labrasol, and propylene glycol. Approximately 0.5 grams of lung tissue samples were collected from each animal and analyzed by LC/MS/MS for determination of the concentrations of GS-441524 and its phosphorylated metabolites. For LC-MS/MS analysis, tissue samples were homogenized and extracted with 4-fold volume of 70% methanol containing 0.1% potassium hydroxide, 67 mM ethylenediamine tetraacetic acid, and internal standard. Approximately 200 μL aliquot of the homogenate was filtered using a 96-well filter plate (0.2 μm polypropylene; Agilent Captiva, Santa Clara, CA). The filtrate was evaporated to dryness and reconstituted with equal volume of 1 mM ammonium phosphate buffer (pH 7). The samples were then analyzed on a Sciex 6500+ LC-MS/MS instrument (Redwood City, CA). Analytes were eluted on a […] 50×2.0 mm Phenomenex Luna C18 HST column (Torrance, CA) using mobile phases containing 3 mM ammonium formate and 10 mM dimethylhexylamine and a linear gradient from 9% to 50% acetonitrile at a flow rate of 360 μL/min. Data acquisition and processing were accomplished using Sciex Analyst® Software. Total summed levels of GS-441524 phosphorylate metabolites (B+C+D) in lung tissues were generated from the sum of GS-441524 mono-, di- and tri-phosphate (B, C, and D respectively).

[3] = MT4 cytotoxicity analysis (CellTiter-Glo); type: cell-based; conditions: human, MT4 CC50 (nM)
Summary of the method: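 MT-4 cells were exposed in quadruplicate to 3-fold serial compound dilutions (DMSO stocks 2.5 uM to 10 mM) for five days at 37 °C. Viability was read by CellTiter-Glo luminescence.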

[4] = in vitro; type: cell-based; conditions: human
Protocol: Example 78: A549 Cytotoxicity Analysis
The cytotoxicity of compounds is determined in A549 cells in the following manner. Compounds (40 nL) are spotted onto 384-well Grenier plates prior to seeding 5000 A549 cells/well in a volume of 40 μL culture medium. The plates are incubated at 37° C. for 48 hours with 5% CO2. On day 2, 40 μL of CellTiter-Glo (Promega) is added and mixed 5 times. Plates are read for luminescence on an Envision (PerkinElmer) and the CC50 (compound concentration for reducing 50% of luminescence signal as a measure of cell viability) are calculated using a nonlinear regression model (four parameters). Two experiments are performed with technical duplicates.

[5] = tested on: SARS-CoV-2; assay: microbe, parasite or virus in culture; type: cell-based; conditions: Severe acute respiratory syndrome coronavirus 2, 48 h

Compound	EC50 [1] [nM]	Total Lung Phosphate Level (monophosphate + diphosphate + triphosphate, nmol/g) [2] [nmol/g]	CC50 at 5 days [3] [nM]	CC50 at 48 h [4] [nM]	EC50 [5] [nM]
CCCCCCCCCCCCCCCCCCOC[C@H](COP(=O)(O)OC[C@H]1O[C@@](C#N)(c2ccc3c(N)ncnn23)[C@H](O)[C@@H]1O)OCc1cc(OC)c(C#N)c(OC)c1 [Example 55, ((2R,3S,4R,5R)-5-(4-aminopyrrolo[2,1-f][1,2,4]triazin-7-yl)-5-cyano-3,4-dihydroxytetrahydrofuran-2-yl)methyl ((R)-2-((4-cyano-3,5-dimethoxybenzyl)oxy)-3-(octadecyloxy)propyl) hydrogen phosphate]	24	2.1	270	–	–
CCCCCCCCCCCCCCCCCCOC[C@H](COP(=O)(O)OC[C@H]1O[C@@](C#N)(c2ccc3c(N)ncnn23)[C@H](O)[C@@H]1O)Oc1cc(OC)c(C#N)c(OC)c1 [Example 34, ((2R,3S,4R,5R)-5-(4-aminopyrrolo[2,1-f][1,2,4]triazin-7-yl)-5-cyano-3,4-dihydroxytetrahydrofuran-2-yl)methyl ((R)-2-(4-cyano-3,5-dimethoxyphenoxy)-3-(octadecyloxy)propyl) hydrogen phosphate]	11	2.4	460	10000	43
CCCCCCCCCCCCCCCCCCOC[C@H](COP(=O)(O)OC[C@H]1O[C@@](C#N)(c2ccc3c(N)ncnn23)[C@H](O)[C@@H]1O)OCc1ccccc1 [Reference Compound, reference compound]	–	0.5	–	–	–
CCCCCCCCCCCCCCCCCCOC[C@H](COP(=O)(O)OC[C@H]1O[C@@](C#N)(c2ccc3c(N)ncnn23)[C@H](O)[C@@H]1O)N(C)Cc1ccc(F)c(Cl)c1 [Example 3, ((2R,3S,4R,5R)-5-(4-aminopyrrolo[2,1-f][1,2,4]triazin-7-yl)-5-cyano-3,4-dihydroxytetrahydrofuran-2-yl)methyl ((R)-2-((3-chloro-4-fluorobenzyl)(methyl)amino)-3-(octadecyloxy)propyl) hydrogen phosphate]	350	0.6	5700	–	2300
CCCCCCCCCCCCCCCCCCC[C@H](COP(=O)(O)OC[C@H]1O[C@@](C#N)(c2ccc3c(N)ncnn23)[C@H](O)[C@@H]1O)OCc1cc(F)cc(C#N)c1 [Example 35, ((2R,3S,4R,5R)-5-(4-aminopyrrolo[2,1-f][1,2,4]triazin-7-yl)-5-cyano-3,4-dihydroxytetrahydrofuran-2-yl)methyl ((R)-2-((3-cyano-5-fluorobenzyl)oxy)henicosyl) hydrogen phosphate]	95	2.7	830	16000	570
